Usually IC50 stands for the concentration at which inhibition is half-maximal. Lower therefore signals greater potency in that assay.

The first assay addresses T1, human TPH1 (Homo sapiens, UniProt P17752).
T1 sequence (P17752 1-444): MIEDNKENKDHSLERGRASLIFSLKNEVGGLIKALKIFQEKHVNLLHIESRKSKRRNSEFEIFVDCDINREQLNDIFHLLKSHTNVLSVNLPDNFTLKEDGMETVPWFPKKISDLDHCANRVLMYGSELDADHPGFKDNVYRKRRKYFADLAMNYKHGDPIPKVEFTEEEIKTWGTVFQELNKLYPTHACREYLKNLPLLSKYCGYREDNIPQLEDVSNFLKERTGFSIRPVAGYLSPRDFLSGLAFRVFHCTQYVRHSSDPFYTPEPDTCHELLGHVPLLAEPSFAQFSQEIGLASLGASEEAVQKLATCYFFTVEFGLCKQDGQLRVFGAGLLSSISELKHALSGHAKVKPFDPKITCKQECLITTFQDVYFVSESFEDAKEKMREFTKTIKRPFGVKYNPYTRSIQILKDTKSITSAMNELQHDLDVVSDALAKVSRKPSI
In words: biochemical.
Details: not given
Put shortly:
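Inhibition is derived from 5-hydroxy-L-tryptophan fluorescence (540 nm emission, 300 nm excitation) after perchloric acid stop, relative to DMSO vehicle. Recombinant full-length human enzyme (40-80 nM) reacts with 40 μM tryptophan plus 100 μM methyltetrahydropterin, pH 7.6 Tris/DTT/catalase, 15° C, 60 min.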
On to `COc1ccc(C2c3c(nc4cc(C(F)(F)F)ccn34)CCN2C(=O)COc2ccc3c(c2C)CCN(C(=O)OC(C)(C)C)C3)c(F)c1` (centres unmarked) [Example 3.3.4, tert-butyl 6-(2-(1-(2-fluoro-4-methoxyphenyl)-7-(trifluoromethyl)-3,4-dihydroimidazo[1,2-a:5,4-c′]dipyridin-2(1H)-yl)-2-oxoethoxy)-5-methyl-3,4-dihydroisoquinoline-2(1H)-carboxylate], for which the half-inhibitory concentration (IC50) is 0.178 µM.

With `COc1ccc(C2c3c(nc4cc(C(F)(F)F)ccn34)CCN2C(=O)COc2ccc3c(c2C)CCNC3)c(F)c1` (centres unmarked) [Example 3.3.5, 1-(1-(2-fluoro-4-methoxyphenyl)-7-(trifluoromethyl)-3,4-dihydroimidazo[1,2-a:5,4-c′]dipyridin-2(1H)-yl)-2-((5-methyl-1,2,3,4-tetrahydroisoquinolin-6-yl)oxy)ethan-1-one], the half-maximal inhibitory concentration (IC50) was 0.217 µM.

Regarding `COc1ccc(C2c3c(nc4cc(C(F)(F)F)ccn34)CCN2C(=O)COc2ccc3c(c2C)CCN(C(C)=O)C3)c(F)c1` (centres unmarked) [Example 3.3.6, 2-((2-acetyl-5-methyl-1,2,3,4-tetrahydroisoquinolin-6-yl)oxy)-1-(1-(2-fluoro-4-methoxyphenyl)-7-(trifluoromethyl)-3,4-dihydroimidazo[1,2-a:5,4-c′]dipyridin-2(1H)-yl)ethan-1-one], the IC50 stood at 0.011 µM.

In the case of `COc1ccc(C2c3c(nc4cc(C(F)(F)F)ccn34)CCN2C(=O)COc2ccc3c(c2C)CCN(C)C3)c(F)c1` (centres unmarked) [Example 3.3.7, 2-((2,5-dimethyl-1,2,3,4-tetrahydroisoquinolin-6-yl)oxy)-1-(1-(2-fluoro-4-methoxyphenyl)-7-(trifluoromethyl)-3,4-dihydroimidazo[1,2-a:5,4-c′]dipyridin-2(1H)-yl)ethan-1-one], 0.117 µM corresponded to half-maximal inhibition (IC50).

The compound `O=C(COc1cccnc1Cl)N1CCc2nc3cc(C(F)(F)F)ccn3c2C1c1ccc(Cl)cc1F` (centres unmarked) [Example 3.4.1, 1-(1-(4-chloro-2-fluorophenyl)-7-(trifluoromethyl)-3,4-dihydroimidazo[1,2-a:5,4-c′]dipyridin-2(1H)-yl)-2-((2-chloropyridin-3-yl)oxy)ethan-1-one] showed an IC50 of 0.044 µM.

With `O=C(COc1ccc(CN2CCOCC2)cc1Cl)N1CCc2nc3cc(C(F)(F)F)ccn3c2C1c1ccc(Cl)cc1F` (centres unmarked) [Example 3.4.2, 1-(1-(4-chloro-2-fluorophenyl)-7-(trifluoromethyl)-3,4-dihydroimidazo[1,2-a:5,4-c′]dipyridin-2(1H)-yl)-2-(2-chloro-4-(morpholinomethyl)phenoxy)ethan-1-one], half-maximal inhibition (IC50) was put at 0.007 µM.

The compound `Cn1nc(OCC(=O)N2CCc3nc4cc(C(F)(F)F)ccn4c3C2c2ccc(Cl)cc2F)c(Cl)c1C(F)(F)F` (centres unmarked) [Example 3.4.3, 2-((4-chloro-1-methyl-5-(trifluoromethyl)-1H-pyrazol-3-yl)oxy)-1-(1-(4-chloro-2-fluorophenyl)-7-(trifluoromethyl)-3,4-dihydroimidazo[1,2-a:5,4-c′]dipyridin-2(1H)-yl)ethan-1-one] returned an IC50 of 0.064 µM.

In turn, `CCc1nc(C)ccc1OCC(=O)N1CCc2nc3cc(C(F)(F)F)ccn3c2C1c1ccc(Cl)cc1F` (centres unmarked) [Example 3.4.4, 1-(1-(4-chloro-2-fluorophenyl)-7-(trifluoromethyl)-3,4-dihydroimidazo[1,2-a:5,4-c′]dipyridin-2(1H)-yl)-2-((2-ethyl-6-methylpyridin-3-yl)oxy)ethan-1-one] had an IC50 of 0.021 µM.

As for `O=C(COc1ccc(N2CCOCC2)nc1Cl)N1CCc2nc3cc(C(F)(F)F)ccn3c2C1c1ccc(Cl)cc1F` (centres unmarked) [Example 3.4.6, 1-(1-(4-chloro-2-fluorophenyl)-7-(trifluoromethyl)-3,4-dihydroimidazo[1,2-a:5,4-c′]dipyridin-2(1H)-yl)-2-((2-chloro-6-morpholinopyridin-3-yl)oxy)ethan-1-one], the IC50 came to 0.005 µM.

Turning to `CS(=O)(=O)Nc1ccc(OCC(=O)N2CCc3nc4cc(C(F)(F)F)ccn4c3C2c2ccc(Cl)cc2F)c(Cl)n1` (centres unmarked) [Example 3.4.7, N-(6-chloro-5-(2-(1-(4-chloro-2-fluorophenyl)-7-(trifluoromethyl)-3,4-dihydroimidazo[1,2-a:5,4-c′]dipyridin-2(1H)-yl)-2-oxoethoxy)pyridin-2-yl)methanesulfonamide], the IC50 stood at 0.005 µM.

`CCc1nc(C)ccc1OCC(=O)N1CCc2nc3cc(C(F)(F)F)ccn3c2C1c1ccc(C2CC2)cc1F` (centres unmarked) [Example 3.5.1, 1-(1-(4-cyclopropyl-2-fluorophenyl)-7-(trifluoromethyl)-3,4-dihydroimidazo[1,2-a:5,4-c′]dipyridin-2(1H)-yl)-2-((2-ethyl-6-methylpyridin-3-yl)oxy)ethan-1-one] registered an IC50 of 0.011 µM.

The compound `O=C(COc1ccc(N2CCOCC2)cc1Cl)N1CCc2nc3cc(C(F)(F)F)ccn3c2C1c1ccc(C2CC2)cc1F` (centres unmarked) [Example 3.5.2, 2-(2-chloro-4-morpholinophenoxy)-1-(1-(4-cyclopropyl-2-fluorophenyl)-7-(trifluoromethyl)-3,4-dihydroimidazo[1,2-a:5,4-c′]dipyridin-2(1H)-yl)ethan-1-one] displayed an IC50 of 0.006 µM.

Take `CCc1c(OCC(=O)N2CCc3nc4cc(C(F)(F)F)ccn4c3C2c2ccc(C3CC3)cc2F)ccc(C)[n+]1[O-]` (centres unmarked) [Example 3.5.3, 1-(1-(4-cyclopropyl-2-fluorophenyl)-7-(trifluoromethyl)-3,4-dihydroimidazo[1,2-a:5,4-c′]dipyridin-2(1H)-yl)-2-((2-ethyl-6-methyl-1-(I1-oxidanyl)-1I4-pyridin-3-yl)oxy)ethan-1-one]: the IC50 amounted to 0.085 µM.

With `O=C(COc1ccc[n+]([O-])c1Cl)N1CCc2nc3cc(C(F)(F)F)ccn3c2C1c1ccc(C2CC2)cc1F` (centres unmarked) [Example 3.5.4, 2-((2-chloro-1-(I1-oxidanyl)-1I4-pyridin-3-yl)oxy)-1-(1-(4-cyclopropyl-2-fluorophenyl)-7-(trifluoromethyl)-3,4-dihydroimidazo[1,2-a:5,4-c′]dipyridin-2(1H)-yl)ethan-1-one], the IC50 turned out to be 0.21 µM.

Turning to `COc1ccc(C2c3c(nc4cc(C(F)(F)F)ccn34)CCN2C(=O)COc2ccc3ccccc3c2)cn1` (centres unmarked) [Example 3.6.1, 1-(1-(6-methoxypyridin-3-yl)-7-(trifluoromethyl)-3,4-dihydroimidazo[1,2-a:5,4-c′]dipyridin-2(1H)-yl)-2-(naphthalen-2-yloxy)ethan-1-one], the IC50 came out at 0.052 µM.

In the case of `COc1ccc(C2c3c(nc4cc(C(F)(F)F)ccn34)CCN2C(=O)COc2ccc(CN3CCOCC3)cc2Cl)cn1` (centres unmarked) [Example 3.6.2, 2-(2-chloro-4-(morpholinomethyl)phenoxy)-1-(1-(6-methoxypyridin-3-yl)-7-(trifluoromethyl)-3,4-dihydroimidazo[1,2-a:5,4-c′]dipyridin-2(1H)-yl)ethan-1-one], the IC50 worked out at 0.05 µM.

Compound `CCOc1ccc(C2c3c(nc4cc(C(F)(F)F)ccn34)CCN2C(=O)COc2ccc(CN3CCOCC3)cc2Cl)cn1` (centres unmarked) [Example 3.7.1, 2-(2-chloro-4-(morpholinomethyl)phenoxy)-1-(1-(6-ethoxypyridin-3-yl)-7-(trifluoromethyl)-3,4-dihydroimidazo[1,2-a:5,4-c′]dipyridin-2(1H)-yl)ethan-1-one] yielded an IC50 of 0.018 µM.

The compound `O=C(COc1ccc(CN2CCOCC2)cc1Cl)N1CCc2nc3cc(C(F)(F)F)ccn3c2C1c1ccc(OCC(F)(F)F)nc1` (centres unmarked) [Example 3.8.1, 2-(2-chloro-4-(morpholinomethyl)phenoxy)-1-(1-(6-(2,2,2-trifluoroethoxy)pyridin-3-yl)-7-(trifluoromethyl)-3,4-dihydroimidazo[1,2-a:5,4-c′]dipyridin-2(1H)-yl)ethan-1-one] registered an IC50 of 0.086 µM.

`COc1ccc(C2c3c(nc4cc(C(F)(F)F)ccn34)CCN2C(=O)COc2ccc3ccccc3c2)cc1O` (centres unmarked) [Example 3.9.1, 1-(1-(3-hydroxy-4-methoxyphenyl)-7-(trifluoromethyl)-3,4-dihydroimidazo[1,2-a:5,4-c′]dipyridin-2(1H)-yl)-2-(naphthalen-2-yloxy)ethan-1-one]: the IC50 turned out to be 0.045 µM.

Turning to `Cc1ccc(C2c3c(nc4cc(C(F)(F)F)ccn34)CCN2C(=O)COc2ccc3ccccc3c2)cc1C` (centres unmarked) [Example 3.10.1, 1-(1-(3,4-dimethylphenyl)-7-(trifluoromethyl)-3,4-dihydroimidazo[1,2-a:5,4-c′]dipyridin-2(1H)-yl)-2-(naphthalen-2-yloxy)ethan-1-one], the IC50 was 0.033 µM.

`Cc1ccc(C2c3c(nc4cc(C(F)(F)F)ccn34)CCN2C(=O)COc2ccc(CN3CCOCC3)cc2Cl)cc1C` (centres unmarked) [Example 3.10.2, 2-(2-chloro-4-(morpholinomethyl)phenoxy)-1-(1-(3,4-dimethylphenyl)-7-(trifluoromethyl)-3,4-dihydroimidazo[1,2-a:5,4-c′]dipyridin-2(1H)-yl)ethan-1-one]: the IC50 worked out at 0.023 µM.

`Cc1ccc(C2c3c(nc4cc(C(F)(F)F)ccn34)CCN2C(=O)COc2cccnc2Cl)cc1C` (centres unmarked) [Example 3.10.3, 2-((2-chloropyridin-3-yl)oxy)-1-(1-(3,4-dimethylphenyl)-7-(trifluoromethyl)-3,4-dihydroimidazo[1,2-a:5,4-c′]dipyridin-2(1H)-yl)ethan-1-one] yielded an IC50 of 0.239 µM.

Staying with this assay, now noted: Table 1; full length human TPH1, 40 μM L-tryptophan, 15° C., 60 minutes; mean if determined several times.
The compound `O=C(COc1ccc(N2CCOCC2)cc1Cl)N1CCc2nc3cc(C(F)(F)F)ccn3c2[C@H]1c1ccc(Cl)cc1F` [Example 3.4.5, ((1R)-1-(4-chloro-2-fluorophenyl)-7-(trifluoromethyl)-3,10a-dihydroimidazo[1,2-a:5,4-c′]dipyridin-2(1H)-yl)-2-(2-chloro-4-morpholinophenoxy)ethan-1-one] showed an IC50 of 0.006 µM.

Values taken from patent US20180155344A1, “TRICYCLIC PIPERIDINE COMPOUNDS” (ACTELION PHARMACEUTICALS LTD, priority 2015, published 2018).
